Key:
[1] = molecular target: T1, C-X-C chemokine receptor type 2 (Homo sapiens, UniProt P25025); type: cell membranes, Membrane; conditions: cho-k1; also: in other assays of this panel Not Active means under 50% inhibition at 10 µM
T1 sequence (P25025 whole entry): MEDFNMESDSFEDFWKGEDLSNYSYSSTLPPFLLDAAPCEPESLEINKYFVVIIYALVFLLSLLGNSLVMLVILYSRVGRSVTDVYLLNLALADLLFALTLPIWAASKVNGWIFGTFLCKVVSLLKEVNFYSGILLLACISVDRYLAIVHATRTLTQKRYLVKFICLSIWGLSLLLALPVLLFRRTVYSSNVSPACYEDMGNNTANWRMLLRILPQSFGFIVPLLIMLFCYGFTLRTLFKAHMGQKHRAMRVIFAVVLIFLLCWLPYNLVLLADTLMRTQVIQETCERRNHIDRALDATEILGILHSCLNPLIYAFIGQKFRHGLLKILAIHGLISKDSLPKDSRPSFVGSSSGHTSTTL

Melanocortin receptor 5 = Melanocortin receptor 5 (Homo sapiens, UniProt P33032); type: cell membranes, HEK293, Membrane; also: in other assays of this panel Not Active means under 50% inhibition at 10 µM
Sequence of Melanocortin receptor 5 (P33032 whole entry): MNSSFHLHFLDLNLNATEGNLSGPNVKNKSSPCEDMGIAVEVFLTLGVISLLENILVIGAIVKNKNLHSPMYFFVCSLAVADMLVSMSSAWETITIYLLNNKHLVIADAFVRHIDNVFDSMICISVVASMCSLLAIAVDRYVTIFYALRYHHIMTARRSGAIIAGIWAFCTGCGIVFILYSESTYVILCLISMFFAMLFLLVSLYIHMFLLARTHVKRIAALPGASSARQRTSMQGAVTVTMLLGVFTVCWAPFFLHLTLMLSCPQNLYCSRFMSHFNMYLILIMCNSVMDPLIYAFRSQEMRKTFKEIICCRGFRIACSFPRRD

Nitric oxide synthase 1 = Nitric oxide synthase 1 (Rattus norvegicus, UniProt P29476); type: tissue-based, Cerebellum; also: in other assays of this panel Not Active means under 50% inhibition at 10 µM
Sequence of Nitric oxide synthase 1 (P29476 whole entry): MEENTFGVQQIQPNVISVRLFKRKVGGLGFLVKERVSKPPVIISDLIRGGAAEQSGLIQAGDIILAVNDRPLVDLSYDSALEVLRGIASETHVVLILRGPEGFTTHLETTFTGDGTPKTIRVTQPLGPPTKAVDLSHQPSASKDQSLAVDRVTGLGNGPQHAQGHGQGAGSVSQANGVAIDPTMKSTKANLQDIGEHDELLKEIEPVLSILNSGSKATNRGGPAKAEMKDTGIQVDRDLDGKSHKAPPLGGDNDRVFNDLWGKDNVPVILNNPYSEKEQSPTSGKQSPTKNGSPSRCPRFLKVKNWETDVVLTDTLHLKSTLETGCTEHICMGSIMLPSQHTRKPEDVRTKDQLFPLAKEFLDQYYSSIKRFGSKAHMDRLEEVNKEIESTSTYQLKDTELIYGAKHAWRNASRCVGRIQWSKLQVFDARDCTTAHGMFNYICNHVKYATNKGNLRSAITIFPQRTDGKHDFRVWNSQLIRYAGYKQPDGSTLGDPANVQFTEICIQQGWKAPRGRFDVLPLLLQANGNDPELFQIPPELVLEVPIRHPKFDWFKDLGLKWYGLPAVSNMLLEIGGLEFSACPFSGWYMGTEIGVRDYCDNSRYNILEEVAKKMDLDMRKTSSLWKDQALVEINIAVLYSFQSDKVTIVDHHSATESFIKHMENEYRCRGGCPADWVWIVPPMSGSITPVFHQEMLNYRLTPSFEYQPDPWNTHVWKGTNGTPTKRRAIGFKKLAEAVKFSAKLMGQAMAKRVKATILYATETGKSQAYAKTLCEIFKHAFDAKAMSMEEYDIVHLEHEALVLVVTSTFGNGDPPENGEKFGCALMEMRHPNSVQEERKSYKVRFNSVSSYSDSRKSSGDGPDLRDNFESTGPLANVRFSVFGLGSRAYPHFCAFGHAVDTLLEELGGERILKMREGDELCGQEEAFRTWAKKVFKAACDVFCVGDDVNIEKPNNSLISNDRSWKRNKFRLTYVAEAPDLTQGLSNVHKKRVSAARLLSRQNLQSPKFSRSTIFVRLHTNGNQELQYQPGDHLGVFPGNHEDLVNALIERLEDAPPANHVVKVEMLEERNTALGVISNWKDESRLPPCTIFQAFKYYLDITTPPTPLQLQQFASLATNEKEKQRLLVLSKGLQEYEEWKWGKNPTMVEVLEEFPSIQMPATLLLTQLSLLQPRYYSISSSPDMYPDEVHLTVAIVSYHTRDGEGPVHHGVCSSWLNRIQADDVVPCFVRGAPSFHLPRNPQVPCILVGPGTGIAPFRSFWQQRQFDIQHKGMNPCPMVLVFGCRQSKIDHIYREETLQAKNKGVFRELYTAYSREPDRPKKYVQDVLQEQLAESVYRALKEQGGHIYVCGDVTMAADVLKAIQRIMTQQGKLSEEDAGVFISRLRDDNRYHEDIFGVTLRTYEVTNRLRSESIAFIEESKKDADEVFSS

[2] = molecular target: T2, Cysteinyl leukotriene receptor 1 (Homo sapiens, UniProt Q9Y271); type: cell membranes, Membrane; conditions: cho-k1; also: in other assays of this panel Not Active means under 50% inhibition at 10 µM
T2 sequence (Q9Y271 whole entry): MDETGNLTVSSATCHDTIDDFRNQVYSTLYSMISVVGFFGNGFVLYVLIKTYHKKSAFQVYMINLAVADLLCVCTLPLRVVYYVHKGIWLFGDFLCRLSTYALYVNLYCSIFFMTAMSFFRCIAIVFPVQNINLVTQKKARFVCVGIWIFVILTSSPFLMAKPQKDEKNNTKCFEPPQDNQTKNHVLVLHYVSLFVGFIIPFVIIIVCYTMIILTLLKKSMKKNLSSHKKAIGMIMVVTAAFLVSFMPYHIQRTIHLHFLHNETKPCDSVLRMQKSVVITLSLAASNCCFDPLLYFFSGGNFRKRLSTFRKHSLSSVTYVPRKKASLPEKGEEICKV

[3] = molecular target: Beta-3 adrenergic receptor (Homo sapiens, UniProt P13945); assay: DRUGMATRIX: Adrenergic beta3 radioligand binding (ligand: [125I] Cyanopindolol); type: cell membranes, HEK293, Membrane; conditions: hek293; Not Active = under 50% inhibition at 10 µM
Sequence of Beta-3 adrenergic receptor (P13945 whole entry): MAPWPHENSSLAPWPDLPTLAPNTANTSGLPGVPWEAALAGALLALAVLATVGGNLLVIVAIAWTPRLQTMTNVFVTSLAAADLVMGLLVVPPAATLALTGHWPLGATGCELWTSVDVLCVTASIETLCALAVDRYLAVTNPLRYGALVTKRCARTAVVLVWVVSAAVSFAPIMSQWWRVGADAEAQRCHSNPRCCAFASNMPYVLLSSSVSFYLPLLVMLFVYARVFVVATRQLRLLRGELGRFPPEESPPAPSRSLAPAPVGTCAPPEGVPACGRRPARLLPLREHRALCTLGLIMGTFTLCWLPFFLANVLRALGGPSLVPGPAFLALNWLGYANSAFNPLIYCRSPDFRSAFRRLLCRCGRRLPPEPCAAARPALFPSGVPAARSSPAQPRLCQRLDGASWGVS

Row | Compound | IC50 [1] | IC50 (Melanocortin receptor 5; hek293) | IC50 (Nitric oxide synthase 1) | IC50 [2] | IC50 [3] | IC50 (Melanocortin receptor 5; read-out: IC50) [µM] | Ki (Melanocortin receptor 5; read-out: Ki) [µM] | Ki [1] | Ki (Melanocortin receptor 5; hek293) | Ki (Nitric oxide synthase 1) | Ki [2] | Ki [3] | IC50 (Melanocortin receptor 5; hek293, read-out: IC50) [µM] | Ki (Melanocortin receptor 5; hek293, read-out: Ki) [µM]
1 | COc1ccc2[nH]cc(CCNC(C)=O)c2c1 [MELATONIN] | Not Active | Not Active | Not Active | Not Active | Not Active | – | – | – | – | – | – | – | – | –
2 | NC(=O)C[S+]([O-])C(c1ccccc1)c1ccccc1 (stereo unspecified) [MODAFINIL] | Not Active | Not Active | Not Active | Not Active | Not Active | – | – | – | – | – | – | – | – | –
3 | CCN(CC)CCOCCC1=CCC2CC1C2(C)C (stereo unspecified) [MYRTECAINE] | Not Active | Not Active | Not Active | Not Active | Not Active | – | – | – | – | – | – | – | – | –
4 | O=C(O)c1cccnc1Nc1cccc(C(F)(F)F)c1 [NIFLUMIC ACID] | Not Active | Not Active | Not Active | Not Active | Not Active | – | – | – | – | – | – | – | – | –
5 | O=C(N/N=C/c1ccc([N+](=O)[O-])o1)c1cc([N+](=O)[O-])cc([N+](=O)[O-])c1O [NIFURSOL] | Not Active | Not Active | Not Active | Not Active | Not Active | – | – | – | – | – | – | – | – | –
6 | COC(=O)Nc1nc2ccc(C(=O)c3cccs3)cc2[nH]1 [NOCODAZOLE] | Not Active | Not Active | Not Active | Not Active | Not Active | – | – | – | – | – | – | – | – | –
7 | C#CC1(O)CC[C@H]2[C@@H]3CCC4=CC(=O)CC[C@@H]4[C@H]3CC[C@@]21CC (stereo partly specified) [NORGESTREL] | Not Active | Not Active | Not Active | Not Active | Not Active | – | – | – | – | – | – | – | – | –
8 | COC(=O)Nc1nc2ccc([S+]([O-])c3ccccc3)cc2[nH]1 (stereo unspecified) [OXFENDAZOLE] | Not Active | Not Active | Not Active | Not Active | Not Active | – | – | – | – | – | – | – | – | –
9 | CC(=O)O[C@H]1C(=O)[C@@]2(C)[C@H]([C@H](OC(=O)c3ccccc3)[C@]3(O)C[C@H](OC(=O)[C@H](O)[C@@H](NC(=O)c4ccccc4)c4ccccc4)C(C)=C1C3(C)C)[C@]1(OC(C)=O)CO[C@@H]1C[C@@H]2O [PACLITAXEL] | Not Active | – | Not Active | Not Active | Not Active | 17.1 | 16.1 | – | – | – | – | – | – | –
10 | C[n+]1ccc(-c2cc[n+](C)cc2)cc1.[Cl-].[Cl-] [PARAQUAT DICHLORIDE] | Not Active | Not Active | Not Active | Not Active | Not Active | – | – | – | – | – | – | – | – | –
11 | CCn1cc(C(=O)O)c(=O)c2cnc(N3CCCC3)nc21 [PIROMIDIC ACID] | Not Active | Not Active | Not Active | Not Active | Not Active | – | – | – | – | – | – | – | – | –
12 | C[n+]1ccccc1/C=N/O.[Cl-] [PRALIDOXIME CHLORIDE] | Not Active | Not Active | Not Active | Not Active | Not Active | – | – | – | – | – | – | – | – | –
13 | COc1cc2nc(N3CCN(C(=O)c4ccco4)CC3)nc(N)c2cc1OC [PRAZOSIN] | Not Active | Not Active | Not Active | Not Active | Not Active | – | – | – | – | – | – | – | – | –
14 | C[C@]12C=CC(=O)C=C1CC[C@@H]1[C@@H]2[C@@H](O)C[C@@]2(C)[C@H]1CC[C@]2(O)C(=O)CO [PREDNISOLONE] | Not Active | Not Active | Not Active | Not Active | Not Active | – | – | – | – | – | – | – | – | –
15 | CC(=O)[C@H]1[C@H](C#N)C[C@H]2[C@@H]3CC=C4C[C@@H](O)CC[C@]4(C)[C@H]3CC[C@@]21C [PREGNENOLONE CARBONITRILE] | Not Active | Not Active | Not Active | Not Active | Not Active | – | – | – | – | – | – | – | – | –
16 | CCCN(CCC)S(=O)(=O)c1ccc(C(=O)O)cc1 [PROBENECID] | Not Active | Not Active | Not Active | Not Active | Not Active | – | – | – | – | – | – | – | – | –
17 | CCCOc1ccc(C(=O)OCCN(CC)CC)cc1N [PROPARACAINE] | Not Active | Not Active | Not Active | Not Active | Not Active | – | – | – | – | – | – | – | – | –
18 | CC(C)c1cccc(C(C)C)c1O [PROPOFOL] | Not Active | Not Active | Not Active | Not Active | Not Active | – | – | – | – | – | – | – | – | –
19 | C[C@@H]1O[C@@H](O[C@@H]2C=C3CC[C@@H]4[C@H](CC[C@]5(C)[C@@H](c6ccc(=O)oc6)CC[C@]45O)[C@@]3(C)CC2)[C@H](O)[C@H](O)[C@H]1O [PROSCILLARIDIN] | Not Active | Not Active | Not Active | Not Active | Not Active | – | – | – | – | – | – | – | – | –
20 | Oc1cccc(O)c1O [PYROGALLOL] | Not Active | Not Active | Not Active | Not Active | Not Active | – | – | – | – | – | – | – | – | –
21 | AURANOFIN | Not Active | Not Active | Not Active | Not Active | Not Active | – | – | Not Active | Not Active | Not Active | Not Active | Not Active | – | –
22 | GADOPENTETATE DIMEGLUMINE | Not Active | Not Active | Not Active | Not Active | Not Active | – | – | Not Active | Not Active | Not Active | Not Active | Not Active | – | –
23 | GENTAMICIN | Not Active | Not Active | Not Active | Not Active | Not Active | – | – | Not Active | Not Active | Not Active | Not Active | Not Active | – | –
24 | GRAMICIDIN | Not Active | – | Not Active | Not Active | Not Active | – | – | Not Active | – | Not Active | Not Active | Not Active | 2.01 | 1.89
25 | NYSTATIN | Not Active | Not Active | Not Active | Not Active | Not Active | – | – | Not Active | Not Active | Not Active | Not Active | Not Active | – | –
